Reference: patent US11986471B2, “Compounds and methods of use” (Tango Therapeutics, Inc., priority 2018, dated 2024)

Experiments:
PRMT5 [1] = target: T1, PRMT5 (Homo sapiens, UniProt O14744); experiment: PRMT5 IC50 assay with no cofactor; type: biochemical
T1 construct: purchased Viva (custom protein)
Summary of the method: (§1)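 IC50 against PRMT5 determined with SAM as cofactor, with no cofactor, and with MTA as cofactor. Ki derived as IC50/1.5 for the SAM assay and IC50/13.5 for the MTA assay; SAM Ki to MTA Ki ratio also reported.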

HAP1 MTAP-deleted = experiment: SDMA in-cell western assay, HAP1 MTAP-deleted cell line; type: cell-based; conditions: for IC50: Homo sapiens, HAP1 MTAP-deleted cell line; for MTAP Intact/Deleted Ratio: IC50 ratio HAP1 MTAP-intact / HAP1 MTAP-deleted
Summary of the method: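 Symmetric dimethylarginine (SDMA) levels were measured by in-cell western in MTAP-null HAP1 cells, one half of an MTAP-isogenic pair whose partner line expresses endogenous MTAP. Compound potency is reported as IC50.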

PRMT5 [2] = target: T1, PRMT5; experiment: PRMT5 IC50 assay in the presence of SAM as cofactor; type: biochemical
Summary of the method: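 Enzyme: human PRMT5. Conditions: plus SAM, plus MTA, or cofactor-free. Output: IC50 (μM); Ki via IC50/1.5 (SAM) or IC50/13.5 (MTA).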

PRMT5 [3] = target: T1, PRMT5; experiment: PRMT5 IC50 assay in the presence of MTA as cofactor; type: biochemical; conditions: for IC50: PRMT5, MTA as cofactor
Summary of the method: as §1

HAP1 MTAP-intact = experiment: SDMA in-cell western assay, HAP1 MTAP-intact cell line; type: cell-based; conditions: Homo sapiens
Summary of the method: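 Symmetric dimethylarginine (SDMA) levels were measured by in-cell western in an isogenic HAP1 pair, one expressing endogenous MTAP and one MTAP-null, and IC50 values were derived for each line. Compounds whose IC50 ratio between the lines is 3-fold or more are classed as MTAP-selective.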

[4] = ratio between Ki in the presence of SAM and Ki in the presence of MTA
[5] = ratio between the Ki in the presence of SAM and the Ki in the presence of MTA

T1 sequence (O14744 whole entry): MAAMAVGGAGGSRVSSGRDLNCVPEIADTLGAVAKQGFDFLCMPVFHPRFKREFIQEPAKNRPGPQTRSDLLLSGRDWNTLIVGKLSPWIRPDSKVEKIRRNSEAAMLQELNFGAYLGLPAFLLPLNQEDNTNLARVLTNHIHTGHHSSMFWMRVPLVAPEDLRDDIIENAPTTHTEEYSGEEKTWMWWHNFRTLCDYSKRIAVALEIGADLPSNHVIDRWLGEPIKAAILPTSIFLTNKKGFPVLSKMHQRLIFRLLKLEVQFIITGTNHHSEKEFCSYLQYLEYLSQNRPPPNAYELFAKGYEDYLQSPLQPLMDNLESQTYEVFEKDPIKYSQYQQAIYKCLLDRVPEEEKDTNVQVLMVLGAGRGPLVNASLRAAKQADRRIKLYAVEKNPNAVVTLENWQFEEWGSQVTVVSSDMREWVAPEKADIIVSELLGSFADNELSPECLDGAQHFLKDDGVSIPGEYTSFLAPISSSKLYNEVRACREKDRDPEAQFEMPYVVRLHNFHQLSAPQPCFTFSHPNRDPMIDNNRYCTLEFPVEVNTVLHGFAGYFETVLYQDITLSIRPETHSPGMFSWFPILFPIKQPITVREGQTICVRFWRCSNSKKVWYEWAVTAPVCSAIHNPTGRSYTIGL
T1 sequence (Q9BQA1 whole entry partner): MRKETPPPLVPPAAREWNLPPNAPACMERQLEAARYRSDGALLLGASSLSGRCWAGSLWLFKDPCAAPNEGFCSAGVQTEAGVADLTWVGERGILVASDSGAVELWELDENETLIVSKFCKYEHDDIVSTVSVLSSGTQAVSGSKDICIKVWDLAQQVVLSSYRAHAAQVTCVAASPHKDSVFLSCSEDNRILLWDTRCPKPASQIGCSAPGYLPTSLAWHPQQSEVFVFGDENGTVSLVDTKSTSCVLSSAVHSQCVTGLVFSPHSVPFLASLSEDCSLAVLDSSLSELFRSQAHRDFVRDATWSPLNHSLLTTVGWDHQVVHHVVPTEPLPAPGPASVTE

Row | SMILES | IC50 (PRMT5 [1]; read-out: No Co-factor IC50) | IC50 (HAP1 MTAP-deleted) | MTAP Intact/Deleted Ratio (HAP1 MTAP-deleted) | IC50 (PRMT5 [2]) | IC50 (PRMT5 [3]) | SAM/MTA Ratio (PRMT5 [3]; [4]) | IC50 (HAP1 MTAP-intact) | IC50 (PRMT5 [1]) | SAM/MTA Ratio (PRMT5 [3]; [5])
1 | CC(C)C(=O)N1CCN(c2nc(NC3COC3)cc(C(=O)NC[C@H](O)CN3CCc4c(ccc(OCc5cnco5)c4Cl)C3)n2)CC1 [Compound 323, (S)—N-(3-(5-chloro-6-(oxazol-5-ylmethoxy)-3N-dihydroisoquinolin-2(1H)-yl)-2-hydroxypropyl)-2-(4-isobutyrylpiperazin-1-yl)-6-(oxetan-3-ylamino)pyrimidine-4-carboxamide] | 500 to 5000 nM | 1000 to 10000 nM | B* (an IC50 ratio greater than or equal to 3 fold but lower than 10 fold between the IC50 in the HAP1 MTAP-intact cell line and the HAP1 MTAP-deleted cell line) | 50 to 500 nM | 50 to 500 nM | A (a Ki ratio greater than or equal to 10 fold between the Ki in the presence of SAM and the Ki in the presence of MTA) | ≥ 10000 nM |  | 
2 | COc1cnc(NC2CCN(C(C)=O)CC2)cc1C(=O)NC[C@H](O)CN1CCc2cc(OCc3ocnc3C)ccc2C1 [Compound 597, (S)-2-((1-acetylpiperidin-4-yl)amino)-N-(2-hydroxy-3-(6-((4-methyloxazol-5-yl)methoxy)-3,4-dihydroisoquinolin-2(1H)-yl)propyl)-5-methoxyisonicotinamide] |  | < 1000 nM | B* (an IC50 ratio greater than or equal to 3 fold but lower than 10 fold between the IC50 in the HAP1 MTAP-intact cell line and the HAP1 MTAP-deleted cell line) | 50 to 500 nM | < 50 nM |  | 1000 to 10000 nM | 50 to 500 nM | A (a Ki ratio greater than or equal to 10 fold between the Ki in the presence of SAM and the Ki in the presence of MTA)
3 | CCN1CCN(c2nc(NC3COC3)cc(C(=O)NC[C@H](O)CN3CCc4c(ccc(OCc5ocnc5C)c4C)C3)n2)CC1 [Compound 385, 2-(4-ethylpiperazin-1-yl)-N-[(2S)-2-hydroxy-3-{5-methyl-6-[(4-methyl-1,3-oxazol-5-yl)methoxy]-1,2,3,4-tetrahydroisoquinolin-2-yl}propyl]-6-[(oxetan-3-yl)amino]pyrimidine-4-carboxamide] | ≥ 5000 nM | 1000 to 10000 nM | C* (an IC50 ratio of less than 3 fold between the IC50 in the HAP1 MTAP-intact cell line and the HAP1 MTAP-deleted cell line) | 50 to 500 nM | 50 to 500 nM | A (a Ki ratio greater than or equal to 10 fold between the Ki in the presence of SAM and the Ki in the presence of MTA) | ≥ 10000 nM |  | 
4 | O=C(NC[C@H](O)CN1CCc2c(ccc(OCc3cnco3)c2Br)C1)c1ccnc(NC2CCC2)c1 [Compound 255, N-[(2S)-3-[5-bromo-6-(oxazol-5-ylmethoxy)-3,4-dihydro-1H-isoquinolin-2-yl]-2-hydroxy-propyl]-2-(cyclobutylamino)pyridine-4-carboxamide] | ≥ 5000 nM | ≥ 10000 nM | C* (an IC50 ratio of less than 3 fold between the IC50 in the HAP1 MTAP-intact cell line and the HAP1 MTAP-deleted cell line) | 500 to 5000 nM | 50 to 500 nM | A (a Ki ratio greater than or equal to 10 fold between the Ki in the presence of SAM and the Ki in the presence of MTA) | ≥ 10000 nM |  | 
5 | Cc1ncoc1COc1ccc2c(c1Cl)CCN(C[C@@H](O)CNC(=O)c1cc(NC3CCCC3)ncn1)C2 [Compound 339, N-[(2S)-3-[5-chloro-6-[(4-methyl-1,3-oxazol-5-yl)methoxy]-1,2,3,4-tetrahydroisoquinolin-2-yl)-2-hydroxypropyl]-6-(cxclopentylamino)pyrimidine-4-carboxamide] | ≥ 5000 nM | ≥ 10000 nM | C* (an IC50 ratio of less than 3 fold between the IC50 in the HAP1 MTAP-intact cell line and the HAP1 MTAP-deleted cell line) | 500 to 5000 nM | 50 to 500 nM | A (a Ki ratio greater than or equal to 10 fold between the Ki in the presence of SAM and the Ki in the presence of MTA) | ≥ 10000 nM |  | 
6 | O=C(NC[C@H](O)CN1CCc2cc(OCc3cnco3)ccc2C1)c1cc(NC2CCCCC2)ncn1 [Compound 395, (S)-6-(cyclohexylamino)-N-(2-hydroxy-3-(6-(oxazol-5-ylmethoxy)-3,4-dihydroisoquinolin-2(1H)-yl)propyl)pyrimidine-4-carboxamide] | ≥ 5000 nM | 1000 to 10000 nM |  | 500 to 5000 nM | 50 to 500 nM | A (a Ki ratio greater than or equal to 10 fold between the Ki in the presence of SAM and the Ki in the presence of MTA) | ≥ 10000 nM |  | 
7 | O=C(NC[C@H](O)CN1CCc2c(ccc(OCc3cnco3)c2Cl)C1)c1cc(NC2CCC2)nc(N2CCCCC2)c1 [Compound 305, (S)—N-(3-(5-chloro-6-(oxazol-5-ylmethoxy)-3N-dihydroisoquinolin-2(1H)-yl)-2-hydroxypropyl)-2-(cyclobutylamino)-6-(piperidin-1-yl)isonicotinamide] | ≥ 5000 nM | 1000 to 10000 nM | C* (an IC50 ratio of less than 3 fold between the IC50 in the HAP1 MTAP-intact cell line and the HAP1 MTAP-deleted cell line) | 500 to 5000 nM | 500 to 5000 nM | A (a Ki ratio greater than or equal to 10 fold between the Ki in the presence of SAM and the Ki in the presence of MTA) | ≥ 10000 nM |  | 
8 | O=C(NC[C@H](O)CN1CCc2c(ccc(OCc3cnco3)c2Cl)C1)c1cc(NC2CCC2)nc(N2CCOCC2)c1 [Compound 288, (S)—N-(3-(5-chloro-6-(oxazol-5-ylmethoxy)-3N-dihydroisoquinolin-2(1H)-yl)-2-hydroxypropyl)-2-(cyclobutylamino)-6-morpholinoisonicotinamide] | ≥ 5000 nM | 1000 to 10000 nM | C* (an IC50 ratio of less than 3 fold between the IC50 in the HAP1 MTAP-intact cell line and the HAP1 MTAP-deleted cell line) | 500 to 5000 nM | 50 to 500 nM | A (a Ki ratio greater than or equal to 10 fold between the Ki in the presence of SAM and the Ki in the presence of MTA) | ≥ 10000 nM |  | 
9 | CC(=O)N1CC[C@H](Nc2cc(C(=O)NC[C@H](O)CN3CCc4cc(OCc5ocnc5C)ccc4C3)ncn2)C[C@H]1C (mixture of isomers) [Compound 626, 6-{[(2RS,4SR)-1-acetyl-2-methylpiperidin-4-yl]amino}-N-[(2S)-2-hydroxy-3-{6-[(4-methyl-1,3-oxazol-5-yl)methoxy]-1,2,3,4-tetrahydroisoquinolin-2-yl}propyl]pyrimidine-4-carboxamide] | 500 to 5000 nM | < 1000 nM | B* (an IC50 ratio greater than or equal to 3 fold but lower than 10 fold between the IC50 in the HAP1 MTAP-intact cell line and the HAP1 MTAP-deleted cell line) | 50 to 500 nM | 50 to 500 nM | A (a Ki ratio greater than or equal to 10 fold between the Ki in the presence of SAM and the Ki in the presence of MTA) | 1000 to 10000 nM |  | 
10 | COc1ccc(C(=O)N2CCc3cc(C(=O)NC[C@H](O)CN4CCc5c(ccc(OCc6ocnc6C)c5C)C4)ccc3C2)cc1 [Compound 533, N-[(2S)-2-hydroxy-3-{5-methyl-6-[(4-methyl-1,3-oxazol-5-yl)methoxy]-1,2,3,4-tetrahydroisoquinolin-2-yl}propyl]-2-(4-methoxybenzoyl)-1,2,3,4-tetrahydroisoquinoline-6-carboxamide] |  | 1000 to 10000 nM | C* (an IC50 ratio of less than 3 fold between the IC50 in the HAP1 MTAP-intact cell line and the HAP1 MTAP-deleted cell line) | 50 to 500 nM | 50 to 500 nM |  | ≥ 10000 nM | ≥ 5000 nM | A (a Ki ratio greater than or equal to 10 fold between the Ki in the presence of SAM and the Ki in the presence of MTA)
11 | COc1ccc(C(=O)N2CCc3cc(C(=O)NC[C@H](O)CN4CCc5cc(OCc6ocnc6C)c(F)cc5C4)ccc3C2)cc1 [Compound 577, N-[(2S)-3-[7-fluoro-6-[(4-methyloxazol-5-yl)methoxy]-3N-dihydro-1H-isoquinolin-2-yl]-2-hydroxy-propyl]-2-(4-methoxybenzoyl)-3N-dihydro-1H-isoquinoline-6-carboxamide] |  | 1000 to 10000 nM | B* (an IC50 ratio greater than or equal to 3 fold but lower than 10 fold between the IC50 in the HAP1 MTAP-intact cell line and the HAP1 MTAP-deleted cell line) | 50 to 500 nM | 50 to 500 nM |  | 1000 to 10000 nM | 500 to 5000 nM | A (a Ki ratio greater than or equal to 10 fold between the Ki in the presence of SAM and the Ki in the presence of MTA)
12 | CCN1CCN(c2cc(C(=O)NC[C@H](O)CN3CCc4c(ccc(OCc5ocnc5C)c4C)C3)cc(NC3CCC3)n2)CC1 [Compound 394, 2-(cyclobutylamino)-6-(4-ethylpiperazin-1-yl)-N-[(2S)-2-hydroxy-3-{5-methyl-6-[(4-methyl-1,3-oxazol-5-yl)methoxy]-1,2,3,4-tetrahydroisoquinolin-2-yl}propyl]pyridine-4-carboxamide] | 500 to 5000 nM | < 1000 nM | A* (an IC50 ratio greater than or equal to 10 fold between the IC50 in the HAP1 MTAP-intact cell line and the HAP1 MTAP-deleted cell line) | 50 to 500 nM | 50 to 500 nM | A (a Ki ratio greater than or equal to 10 fold between the Ki in the presence of SAM and the Ki in the presence of MTA) | ≥ 10000 nM |  | 
